Assay results from US11859203B2, “Cell culture methods” (UCB BIOPHARMA SRL, priority 2017, dated 2024).

What was measured:
Format in all cases: cell-based, Chinese Hamster
[1] = test system: cell line 1; test: Reproducibility in 2 L bioreactor, cell line 1, average of data sets 1 and 2 (Example 4); conditions: for cell growth (VCC) compared to control: from day 9, 2 L bioreactor, data sets 1 and 2
Method: (§1) The ability of cysteine/cystine derivatives to reduce color and acidic species of a recombinant protein preparation produced in cell culture was evaluated in a bioreactor for two cell lines. This model is more representative of the large-scale production than the shake flask due to the geometry and additional control. CHO-DG44 cells from cell line 1 and 2 were inoculated in 1300 mL of basal media at a seeding density of 0.35×10^6 cells/mL in 2 L stirred bioreactor (Sartorius). The cells were cultivated during 14 days in fed-batch mode. The cell cultures were agitated at 280 rpm and the DO was maintained at 40%. The cell culture was maintained at pH 7.0±0.2 with an automatic CO2 sparging regulation. Cells were cultured in a fed-batch mode with bolus addition of Feed every day of culture. The basal media contained 0.04 mmol/L of cysteine+0.38 mmol/L of cystine. The Feed contained 153.3 mmol/L of cystine. Over the entire 14-day production phase, the total volume of Feed added corresponded to 5.7% (w/w) of the culture start volume for cell line 1 and to 3.1% (w/w) of the culture start volume for cell line 2.
(§2) The cysteine present in the Feed was replaced by different cysteine- and cystine derivatives at different percentages as presented in Table 2. A condition with only 50% of cysteine was added to test whether the improvements observed were due to the cysteine derivative or to the reduction of cysteine only. Osmolality was daily monitored using an osmometer from Advanced instrument. Off line pH, dissolved O2 and dissolved CO2 were daily monitored using a Nova Biomedical Phox (Nova biomedical). Metabolites concentrations were daily determined using a CedexBioHT system (Roche). Viable cell concentration and cell viability were measured daily using a ViCell automated cell counter (Beckman Coulter). The cell culture fluid was collected daily by centrifuging 1 mL of cell culture fluid for determination of antibody titer by HPLC prot A (waters) or using protein-L Octet measurement (Pall). At the end of the 14 days of culture, the cell culture fluid was harvested by centrifugation. The supernatant was then purified using a protein-A or L affinity chromatography (GE). The protein-A or L eluates were used for the molecular weight determination using UPLC size exclusion (Waters) and for the charge variants determination using isocapillary focusing (PROTEINSIMPLE iCE3). Another part of the protein-A eluates (only from cell line 1) was concentrated to 40 mg/mL using Amicon centricon centrifugal filter devices (Millipore). Color intensity of the concentrated antibody composition was measured in the concentrated protein A eluates using a spectrophotometer by transmission (UltrascanPro) and compared to the CIE (commission internationale de l'éclairage) scale. The numerical results were normalized to the concentration of 40 mg/mL.
The reproducibility of the results was evaluated in bioreactor with cell line 1. The experiments of Example 3 were repeated with an additional control and a bioreactor with 50% S-sulfocysteine 50% Cysteine Feed. The data from the two experiments were analyzed to confirm the effect previously observed with cysteine/cystine derivatives.

[2] = test system: CHO-DG44 cells from cell line 2; test: Fed-batch 2 L bioreactor culture with cysteine/cystine derivatives, cell line 2 (Example 3); conditions: 50% replacement; cell line 2, 2 L bioreactor
Method: as §1, §2

[3] = test system: CHO-DG44 cells producing a full-length antibody, mAb1; test: Fed-batch shake flask culture with cysteine in Feed replaced by cysteine/cystine derivatives (Example 1)
Method: The ability of cysteine/cystine derivatives to reduce color and acidic species of an antibody preparation produced recombinantly by host cells grown in cell culture was evaluated. For this experiment, a scale-down model in shake flask was used. CHO-DG44 cells producing a full-length antibody, mAb1, were inoculated in 100 mL of basal media at a seeding density of 0.35×10^6 cells/mL mAb1 comprises a light chain having the sequence as defined in SEQ ID NO: 9 and a heavy chain having the sequence as defined in SEQ ID NO: 10.
The shake flask vessels were 250 mL shake flasks (corning) disposed in an agitated incubator (Infors) protected from light. The cells were cultivated for 14 days at 36.8° C. with 80% humidity. The cell cultures were agitated at 140 rpm at the beginning of the process. The agitation was increased during the process progressively to reach 250 rpm to maintain a DO % at 40% in the shake flask, as is it done in a 2 L bioreactor process. The cell culture was maintained at pH 7.0±0.2 by decreasing the CO2 in the incubator from 5% before the process to 2% during the process. Cells were cultured in a fed-batch mode with bolus addition of Feed every day of culture. The basal media contained 0.04 mmol/L of cysteine+0.38 mmol/L of cystine. The Feed contained 153.3 mmol/L of cystine. Over the entire 14-day production phase, the total volume of Feed added corresponded to 4.47% (v/v) of the culture start volume.
The cysteine present in the Feed was replaced by different cysteine and cystine derivatives at different percentages as presented in Table 1. Osmolality was daily monitored using an osmometer from Advanced Instruments. Off line pH, dissolved O2 and dissolved CO2 were daily monitored using a model BioProfile pHOx® blood gas analyser (Nova Biomedical Corporation, Waltham, Mass.). Metabolites concentrations were daily determined using a CedexBioHT system (Roche). Viable cell concentration and cell viability were measured daily using a ViCell automated cell counter (Beckman Coulter). The cell culture fluid was collected daily by centrifuging 1 mL of cell culture fluid for determination of antibody titer using protein A HPLC (Waters). At the end of the 14 days of culture, the cell culture fluid was harvested by centrifugation. The supernatant was then purified using a protein-A affinity chromatography (MabSelect Sure, GE). […] The relative percentage of main, acidic (APG for Acidic Peak Group) and basic (BPG for Basic Peak Group) isoforms of the purified mAb was determined by Imaged Capillary Electrophoresis (PROTEINSIMPLE iCE3). […]
Color intensity of the concentrated antibody composition was measured in the concentrated protein A eluates using a spectrophotometer by transmission (UltrascanPro) and compared to the CIE (commission internationale de l'éclairage) scale. […]

[4] = test system: CHO-DG44 cells from cell line 1; test: Fed-batch 2 L bioreactor culture with cysteine/cystine derivatives, cell line 1 (Example 3); conditions: 50% replacement, cell line 1, 2 L bioreactor; for decrease of the b value level (color intensity) compared to control: 40 mg/mL
Method: as §1, §2

[5] = test system: CHO-DG44 cells from cell line 1; test: Fed-batch Ambr15 mini bioreactor culture, different replacement levels, cell line 1 (Example 5); conditions: for cell growth: 90% of cysteine/cystine in Feed replaced, Ambr15
Method: We tested different concentrations of cysteine/cystine derivatives on the improvement on the APG level of a recombinant protein preparation produced in cell culture cultivated in mini bioreactors. CHO-DG44 cells from cell line 1 were inoculated in 12 mL basal media at a seeding density of 0.35×10^6 cells/mL in Ambr15 bioreactors (Sartorius). The cells were cultivated in fed-batch mode during 14 days. The DO was maintained at 40% and the pH was maintained 7.0±0.2 with an automatic CO2 sparging regulation. Viable cell concentration and cell viability were measured daily using a ViCell automated cell counter (Beckman Coulter). Cells were cultured in a fed-batch mode with a daily bolus addition of Feed. The basal media contained 0.04 mmol/L cysteine+0.38 mmol/L cystine. The Feed contained 153.3 mmol/L of cystine. Over the entire 14-day production phase, the total volume of added Feed corresponded to 4.7% (v/v) of the culture start volume.
Different percentages of cysteine present in the Feed was replaced by different cysteine- and cystine analogs. Table 4 provides an overview of different percentages tested and their equivalence in molar ratio relative to cysteine or cystine. E.g. for N-Acetyl-L-cysteine 10% means that 10% molar amount of cysteine equivalent has been replaced by 10% molar amount of N-Acetyl-L-cysteine; for N,N′-Diacetyl-L-cystine, 10% means that 10 molar amount of cystine equivalent has been replaced with 10% molar amount of N,N′-Diacetyl-L-cystine. At the end of the 14 days of culture, the cell culture fluid was harvested by centrifugation. The supernatant was then purified using a protein-A affinity chromatography (GE). The protein-A eluates were used for the charge variants determination using isocapillary focusing (PROTEINSIMPLE iCE3).

[6] = 50% replacement, compared to 50% cysteine feed
[7] = 50% replacement, data sets 1 and 2 average

| Structure (SMILES) | specific productivity [1, 6] | average decrease of b value level (color intensity) compared to control [1, 7] | decrease in antibody titer compared to the controls average [1, 7] | titer loss due to cysteine reduction in feed compensated ([1]; compared to 50% cysteine feed) | decrease of acidic species level compared to control [2] | main species level [2] | decrease of b*value (color intensity) of the concentrated protein-A eluate compared to control ([3]; 50% replacement, day 14, eluate normalized to 40 mg/mL) | decrease on acidic variants level compared to control ([3]; 50% replacement, day 14, iCE3) | decrease of acidic species level compared to control [4] | decrease of antibody titer compared to control [4] | main species level [4] | decrease of the b value level (color intensity) compared to control [4] | acidic species level with respect to the control ([5]; 10-90% replacement) | cell growth [5] | main species level [1, 7] | cell growth (VCC) compared to control ([1]; 50% replacement) | main charge species level with respect to the control ([5]; 10-90% replacement) | maximum reduction of acidic species level with respect to the control ([5]; with the increase of the percentage of replacement (10-90%)) | maximum viable cell concentration ([3]; 50% of cysteine in Feed replaced) | cell growth (viable cell concentration) compared to control ([3]; 100% of cysteine in Feed replaced by derivative, shake flask, 14 days) |
| --- | --- | --- | --- | --- | --- | --- | --- | --- | --- | --- | --- | --- | --- | --- | --- | --- | --- | --- | --- | --- |
| COC(=O)[C@H](CSSC[C@H](NC(C)=O)C(=O)OC)NC(C)=O [N,N′-diacetyl-L-cystine dimethylester, N,N′-diacetyl-L-cystine-dimethylester] | increase of the specific productivity | 30% | less than 5% | 5% | 13% | increase of main species | 21.2% | 24.8% | 15% | less than 5% | increase of main species | 25% | decrease of the acidic species level | Inhibition of the growth | – | – | – | – | – | – |
| CC(=O)N[C@@H](CSSC[C@H](NC(C)=O)C(=O)O)C(=O)O [N,N′-diacetyl-L-cystine, N,N′-Diacetyl-L-cystine] | did not impact the productivity | 14% | 10% | – | 8% | increase of main species | – | – | 5% | – | increase of main species | 2.5% | – | Inhibition of the growth | increase of main species | higher VCCs than the control conditions | positive difference with respect to the control | 27.5% | – | – |
| N[C@@H](CSS(=O)(=O)O)C(=O)O [S-sulfocysteine, S-Sulfocysteine, reference compound] | not to a specific impact | 5% | 25% | – | – | – | – | – | – | – | – | – | – | – | – | higher cell death than the control | – | – | 2×10^6 cells/mL | cells rapidly died on day 7 |
